US10201532B2, “Compounds and their use” (ALLECRA THERAPEUTICS GMBH, priority 2010, dated 2019)

Legend:
[1] = system: KPC-3 expressing E. coli (J53 R6206); test: Synergistic broth micro-dilution MIC (checkerboard); assay type: cell-based, Escherichia coli
[2] = system: KPC-2 producing K. pneumoniae (ATCC BAA-1705); test: as above; assay type: cell-based, Klebsiella pneumoniae; conditions: ATCC BAA-1705; for MIC: Klebsiella pneumoniae, ATCCBAA1705, no BLI, read-out: MIC of antibiotic alone (no BLI)
E. coli Ecoli233 (KPC3) = test: Synergistic broth micro-dilution MIC; assay type: cell-based, Escherichia coli
[3] = system: KPC2 K. pneumoniae ATCC BAA 1705; test: Neutropenic mice thigh infection model (human adapted model); assay type: in vivo; conditions: Doripenem 70 mg/kg fractionated over 5.5 h; end point 8 h
Experimental: Female Swiss Albino mice weighing 24-30 g were used for all studies. Study protocols were reviewed and approved by Institutional Animal Ethical Committee, Orchid Research Laboratories Limited. Mice were rendered neutropenic by intra-peritoneal cyclophosphamide injections. Log phase culture in brain heart infusion broth was injected in to mice thighs. Imipenem or Doripenen alone or in combination were administered sub-cutaneously in decreasing fractionated doses every 15 minutes over the period of 5.5 h (Flückiger, U. et al. “Integration of pharmacokinetics and pharmacodynamics of Imipenem in a human-adapted mouse model’. Antimicrobial Agents and Chemother, 1991, 35(9): 1905-1910). The Compound-1 or tazobactam was administered sub-cutaneously as bolus dose at the start of dosing. Efficacy end point was 6 h in Imipenem studies and 8 h in Doripenen studies.
Three experiments were carried out where Doripenen alone or in combination with compound-1 or tazobactam (two experiments) were evaluated. Doripenem 70 mg/kg was administered in fractionated doses over the period of 5.5 h (Fluckiger, U. et al. “Integration of pharmacokinetics and pharmacodynamics of Imipenem in a human-adapted mouse model’. Antimicrobial Agents and Chemother., 1991, 35(9): 1905-1910). Compound-1 or tazobactam was administered as bolus dose at initiation of therapy. Efficacy end point was 8 h after initiation of therapy.

[4] = system: KPC2 K. pneumoniae ATCC BAA 1705; test: Mice systemic infection model; assay type: in vivo; conditions: Klebsiella pneumoniae, BAA1705; mice, sub-cutaneous; read-out: ED50 of Doripenem alone
Experimental: Female Swiss Albino mice, weighing 18-22 g were used for all studies. For each dose group, 5 or 6 mice were included. Study protocols were reviewed and approved by Institutional Animal Ethical Committee, Orchid Research Laboratories Limited. Mice were housed in individually ventilated cages provided with food and water ad libitum, throughout the study period. From overnight culture in Brain-Heart Infusion agar medium, challenge inoculum with required bacterial density was prepared in normal saline containing Hog gastric mucin. In studies involved with doripenem, washed bacterial cells was used. Each mouse was infected […] inoculum by intra-peritoneal injection.
Infected mice were dosed sub-cutaneously, with drug preparations at three different time points post-infection.
Imipenem with BLI combinations: Increasing concentrations of Imipenem as single agent or in combination with fixed concentration of BLIs were used to dose infected mice, sub-cutaneously. In this experiment Imipenem was always administered along with cilastatin. Doripenem with BLI combinations: Increasing concentrations of doripenem as single agent or in combination with fixed concentration of BLIs were used to dose infected mice, sub-cutaneously.
Survival of the treated mice were monitored twice a day, up to 7 days post-infection. Efficacy dose 50 (ED50) was calculated by Reed and Muench method (Reed, L. J.; Muench, H. “A simple method of estimating fifty percent endpoints”. The American Journal of Hygiene, 1938, 27: 493-497.).

Row | MIC [2] | Compound | MIC of BLI alone [1] | MIC of Imipenem in combination with BLI ([1]; BLI at 4 μg/mL) | MIC of Meropenem in combination with BLI ([1]; BLI at 4 μg/mL) | MIC of Imipenem in combination with BLI ([1]; BLI at 16 μg/mL) | MIC of Meropenem in combination with BLI ([1]; BLI at 16 μg/mL) | MIC of BLI alone [2] | MIC of Imipenem in combination with BLI ([2]; BLI at 4 μg/mL) | MIC of Meropenem in combination with BLI ([2]; BLI at 4 μg/mL) | MIC of Imipenem in combination with BLI ([2]; BLI at 16 μg/mL) | MIC of Meropenem in combination with BLI ([2]; BLI at 16 μg/mL) | also measured
1 |  | C=CC[n+]1ccn(C[C@@]2(C)[C@H](C(=O)O)N3C(=O)C[C@H]3S2(=O)=O)n1 [Compound-4, 1-{[(2S,3S,5R)-2-Carboxy-3-methyl-4,4,7-trioxo-4-thia-1-azabicyclo[3.2.0]hept-3-yl]methyl}-3-allyl-1H-1,2,3-triazol-3-ium] | >16 µg/mL | 0.5 µg/mL | <0.125 µg/mL | 0.25 µg/mL | <0.125 µg/mL | >16 µg/mL | 4 µg/mL | 8 µg/mL | 1 µg/mL | 4 µg/mL | 
2 |  | C[C@]1(Cn2cc[n+](CC(N)=O)n2)[C@H](C(=O)O)N2C(=O)C[C@H]2S1(=O)=O [Compound-5, 1-{[(2S,3S,5R)-2-Carboxy-3-methyl-4,4,7-trioxo-4-thia-1-azabicyclo[3.2.0]hept-3-yl]methyl}-3-(2-amino-2-oxoethyl)-1H-1,2,3-triazol-3-ium] | >16 µg/mL | 0.5 µg/mL | <0.125 µg/mL | 0.25 µg/mL | <0.125 µg/mL | >16 µg/mL | 8 µg/mL | 8 µg/mL | 1 µg/mL | 2 µg/mL | 
3 |  | CC(C)(C)OC(=O)C[n+]1ccn(C[C@@]2(C)[C@H](C(=O)O)N3C(=O)C[C@H]3S2(=O)=O)n1 [Compound-6, 1-{[(2S,3S,5R)-2-Carboxy-3-methyl-4,4,7-trioxo-4-thia-1-azabicyclo[3.2.0]hept-3-yl]methyl}-3-(2-t-butoxy-2-oxoethyl)-1H-1,2,3-triazol-3-ium] | >16 µg/mL | 1 µg/mL | 0.5 µg/mL | 0.5 µg/mL | <0.125 µg/mL | >16 µg/mL | 8 µg/mL | 16 µg/mL | 8 µg/mL | 4 µg/mL | 
4 |  | CCOC(=O)CNC(=O)C[n+]1ccn(C[C@@]2(C)[C@H](C(=O)O)N3C(=O)C[C@H]3S2(=O)=O)n1 [Compound-8, 1-{[(2S,3S,5R)-2-Carboxy-3-methyl-4,4,7-trioxo-4-thia-1-azabicyclo[3.2.0]hept-3-yl]methyl}-3-{2[(2-ethoxy-2-oxoethyl)amino]-2-oxoethyl}-1H-1,2,3-triazol-3-ium] | >16 µg/mL | 1 µg/mL | 0.25 µg/mL | 0.25 µg/mL | <0.125 µg/mL | >16 µg/mL | 8 µg/mL | 8 µg/mL | 4 µg/mL | 4 µg/mL | 
5 |  | Cc1cn(C[C@@]2(C)[C@H](C(=O)[O-])N3C(=O)C[C@H]3S2(=O)=O)c[n+]1C [Compound-13, (2S,3S,5R)-3-Methyl-3-(4-methyl-3-methyl-imidazol-3-ium-1-ylmethyl)-4,4,7-trioxo-4-thia-1-aza-bicyclo[3.2.0]heptane-2-carboxylate] |  |  |  |  |  |  | 2 µg/mL |  | 2 µg/mL |  | MIC of Imipenem in combination with BLI (E. coli Ecoli233 (KPC3); BLI at 4 μg/mL): 8 µg/mL; MIC of Imipenem in combination with BLI (E. coli Ecoli233 (KPC3); BLI at 16 μg/mL): 1 µg/mL
6 |  | C[C@@H](O)[C@H]1C(=O)N2C(C(=O)O)=C(S[C@@H]3CN[C@H](CNS(N)(=O)=O)C3)[C@H](C)[C@H]12 [Doripenem] |  |  |  |  |  |  |  |  |  |  | Bacterial load (range), Doripenem alone [3]: 5.4E+06-2.6E+07 CFU/thigh; ED50 [4]: 14.1 mg/kg
7 | > 64 µg/mL | C[C@@H](O)[C@H]1C(=O)N2C(C(=O)O)=C(S[C@@H]3CN[C@H](C(=O)Nc4cccc(C(=O)O)c4)C3)[C@H](C)[C@H]12 [Ertapenem] |  |  |  |  |  |  |  |  |  |  | 
8 | > 64 µg/mL | C[C@@H](O)[C@H]1C(=O)N2C(C(=O)O)=C([C@H]3CCCO3)S[C@H]12 [Faropenem] |  |  |  |  |  |  |  |  |  |  | 

Row | Compound | MIC [2] | MIC of BLI alone [1] | MIC of Imipenem in combination with BLI ([1]; BLI at 4 μg/mL) | MIC of Meropenem in combination with BLI ([1]; BLI at 4 μg/mL) | MIC of Imipenem in combination with BLI ([1]; BLI at 16 μg/mL) | MIC of Meropenem in combination with BLI ([1]; BLI at 16 μg/mL) | MIC of BLI alone [2] | MIC of Imipenem in combination with BLI ([2]; BLI at 4 μg/mL) | MIC of Meropenem in combination with BLI ([2]; BLI at 4 μg/mL) | MIC of Imipenem in combination with BLI ([2]; BLI at 16 μg/mL) | MIC of Meropenem in combination with BLI ([2]; BLI at 16 μg/mL) | also measured
9 | C[C@@H](O)[C@H]1C(=O)N2C(C(=O)O)=C(S[C@@H]3CN[C@H](C(=O)N(C)C)C3)[C@H](C)[C@H]12 [Meropenem] | 32 to 64 µg/mL |  |  |  |  |  |  |  |  |  |  | MIC of antibiotic alone (no BLI) ([1]; no BLI): 2 to 4 µg/mL
